Experimental data: the Kinase Knowledgebase extract (Sharma et al. 2016)
Several values for one entry are separate records, joined by “and”; a condition that tells them apart may be missing. Equal entries are not always repeated. Values belong to the molecule of their own block, whether it stands above or below them.

What was measured:
[1] = molecular target: MAPK14 (human) (UniProt Q16539); test: Inhibition of MAPK14 Kinase Activity
[2] = test system: MAPK14 (Balb/c mice); test: Inhibition of LPS Induced TNF-alpha Release in Mice
[3] = molecular target: ROCK2 (bovine) (UniProt Q28021); test: Inhibition of RHO-Associated Coiled-Coil-Containing Protein Kinase 2 Activity
[4] = molecular target: EGFR (mouse) (UniProt P00533); conditions: mk
[5] = molecular target: EGFR (murine) (UniProt P00533); conditions: 32 d
[6] = test system: EGFR (murine), P00533 [Antiproliferation of 32D/EGFRvIII Cells]
[7] = molecular target: MAPK14 (UniProt Q16539); test: Enzyme Assay
[8] = test system: MAPK14 (Balb/c mice); test: Cell-Based Assay; conditions: peritoneal macrophage
[9] = molecular target: EGFR (UniProt P00533)
[10] = molecular target: MAPK14 (UniProt Q16539); test: Inhibition of MAPK14 Kinase Activity
[11] = molecular target: CDK2 (human) (UniProt P24941); test: Cell-Based Assay; conditions: mcf-7
[12] = molecular target: EGFR (UniProt P00533); remark: listed apart in the source
[13] = molecular target: EGFR (murine) (UniProt P00533); conditions: nih3t3
[14] = molecular target: EGFR (human) (UniProt P00533)
[15] = molecular target: EGFR (human) (UniProt P00533); conditions: A431
[16] = molecular target: EGFR (human) (UniProt P00533); remark: listed apart in the source
[17] = molecular target: EGFR (human) (UniProt P00533); remark: listed apart in the source
[18] = molecular target: EGFR (human) (UniProt P00533); conditions: kb
[19] = molecular target: EGFR (human) (UniProt P00533); conditions: a431
[20] = molecular target: EGFR (human) (UniProt P00533); conditions: a431; remark: listed apart in the source
[21] = molecular target: EGFR (human) (UniProt P00533); remark: listed apart in the source
[22] = molecular target: EGFR (UniProt P00533); remark: listed apart in the source
[23] = molecular target: EGFR (human) (UniProt P00533); remark: listed apart in the source
[24] = molecular target: EGFR (human) (UniProt P00533); conditions: A431; remark: listed apart in the source
[25] = molecular target: CDK2 (human) (UniProt P24941); test: Enzyme Assay; conditions: concentration not given here
[26] = molecular target: ROCK2 (human) (UniProt O75116); test: Inhibition of ROCK2 Kinase Activity; conditions: concentration not given here
[27] = molecular target: EGFR (human) (UniProt P00533); remark: listed apart in the source
[28] = molecular target: MAPK14 (human) (UniProt Q16539); test: Inhibition of TNF-alpha Release from LPS Stimulated hPBMCs; conditions: pbmc
[29] = molecular target: MAPK14 (human) (UniProt Q16539); test: In vitro Inhibition of LPS-Induced TNF-alpha Release in THP-1 Cells; conditions: thp.1 monocytic
[30] = molecular target: EGFR (human) (UniProt P00533); conditions: a431; remark: listed apart in the source
[31] = molecular target: CDK2 (UniProt P24941); test: Enzyme Assay
[32] = molecular target: EGFR (UniProt P00533); remark: listed apart in the source
[33] = molecular target: EGFR (human) (UniProt P00533); conditions: a431; remark: listed apart in the source
[34] = molecular target: EGFR (UniProt P00533); conditions: concentration not given here

Sequence of MAPK14 (human) (Q16539 whole entry, looked up): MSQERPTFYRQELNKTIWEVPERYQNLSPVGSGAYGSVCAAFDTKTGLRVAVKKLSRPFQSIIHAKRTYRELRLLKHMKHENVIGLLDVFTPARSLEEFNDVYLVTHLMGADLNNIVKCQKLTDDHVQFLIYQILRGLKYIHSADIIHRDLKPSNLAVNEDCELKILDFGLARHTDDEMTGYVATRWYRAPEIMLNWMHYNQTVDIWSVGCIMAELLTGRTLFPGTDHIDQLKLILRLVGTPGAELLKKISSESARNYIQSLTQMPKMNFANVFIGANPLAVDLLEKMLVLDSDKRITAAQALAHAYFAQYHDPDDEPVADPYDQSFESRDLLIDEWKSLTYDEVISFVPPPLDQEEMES
Sequence of EGFR (human) (P00533 whole entry, looked up): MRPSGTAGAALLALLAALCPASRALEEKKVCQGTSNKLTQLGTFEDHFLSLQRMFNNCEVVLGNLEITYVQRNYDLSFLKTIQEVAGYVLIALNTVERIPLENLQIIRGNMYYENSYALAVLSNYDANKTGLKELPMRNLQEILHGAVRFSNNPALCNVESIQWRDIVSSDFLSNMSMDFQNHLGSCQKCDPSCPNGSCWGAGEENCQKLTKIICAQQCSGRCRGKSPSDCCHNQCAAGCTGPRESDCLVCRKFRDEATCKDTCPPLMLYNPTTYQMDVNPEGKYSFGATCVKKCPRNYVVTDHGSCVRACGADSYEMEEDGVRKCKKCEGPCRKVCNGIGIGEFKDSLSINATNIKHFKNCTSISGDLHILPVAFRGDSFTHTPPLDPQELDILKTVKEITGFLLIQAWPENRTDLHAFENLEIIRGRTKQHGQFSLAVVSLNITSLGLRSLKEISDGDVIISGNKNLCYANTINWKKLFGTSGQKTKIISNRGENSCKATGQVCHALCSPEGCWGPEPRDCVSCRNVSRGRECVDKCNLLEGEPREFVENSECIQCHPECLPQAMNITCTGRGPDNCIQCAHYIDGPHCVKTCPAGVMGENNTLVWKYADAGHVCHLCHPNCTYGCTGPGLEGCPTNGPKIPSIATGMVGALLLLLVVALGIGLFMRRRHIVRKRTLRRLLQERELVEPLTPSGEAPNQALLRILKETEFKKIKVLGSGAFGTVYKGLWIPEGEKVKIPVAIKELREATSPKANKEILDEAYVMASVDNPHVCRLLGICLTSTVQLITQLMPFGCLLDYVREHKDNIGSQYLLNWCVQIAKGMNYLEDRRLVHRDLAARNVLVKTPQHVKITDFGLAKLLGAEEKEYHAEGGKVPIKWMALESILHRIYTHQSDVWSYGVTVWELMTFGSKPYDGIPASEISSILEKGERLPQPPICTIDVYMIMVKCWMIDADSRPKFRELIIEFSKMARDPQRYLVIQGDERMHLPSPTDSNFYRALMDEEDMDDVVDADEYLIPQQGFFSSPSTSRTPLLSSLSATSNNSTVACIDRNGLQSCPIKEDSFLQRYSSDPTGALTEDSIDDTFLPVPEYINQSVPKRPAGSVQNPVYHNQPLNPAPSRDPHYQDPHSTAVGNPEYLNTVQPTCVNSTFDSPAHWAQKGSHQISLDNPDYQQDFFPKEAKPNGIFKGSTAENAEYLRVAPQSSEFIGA
Sequence of EGFR (P00533 whole entry, looked up): as above
Sequence of MAPK14 (Q16539 whole entry, looked up): as the sequence (Q16539 whole entry, looked up) above
Sequence of EGFR (murine) (P00533 whole entry, looked up): as the sequence (P00533 whole entry, looked up) above

Ki [1]: 4.2 nM
Structure (SMILES): CONC(=O)c1ccc(C)c(Nc2nc(N(C)CC(C)(C)C)nc(N3CCCN(C)CC3)n2)c1
ED50 [2]: Between 3 to 10 mg kg-1

IC50 [3]: 530 nM
Structure (SMILES): CC(C)c1ccc(CN2CCCC(Nc3cccc4cnccc34)C2)cc1 (centres undefined)

IC50 [4]: 56 nM
IC50 [5]: 300 nM
Structure (SMILES): CCN1CCN(Cc2ccc(-c3cc4c(N[C@H](C)c5ccccc5)ncnc4[nH]3)cc2)CC1
IC50 [6]: 10 nM

IC50 [7]: 16.1 nM
IC50 [8]: 19.2 nM
Structure (SMILES): OCCC#Cc1nc(-c2ccc(F)cc2)c(-c2ccncc2)n1CCCc1ccccc1

IC50 [9]: > 10000 nM
Structure (SMILES): Nc1ccc(-c2cc(Nc3ccc(S(N)(=O)=O)cc3)[nH]n2)cc1

IC50 [10]: > 10000 nM
IC50 [11]: 390 nM
IC50 [12]: > 10000 nM
Structure (SMILES): COCCNS(=O)(=O)c1ccc(Nc2nccc(-c3cnc4cccnn34)n2)cc1

IC50 [13]: > 100000 nM
Structure (SMILES): COc1ccccc1Oc1cccc2nc(N)nc(N)c12

Structure (SMILES): Nc1nc(Nc2ccc(S(N)(=O)=O)cc2)nn1C(=O)c1c(F)cccc1F
IC50 [14]: > 100000 nM
IC50 [15]: > 100000 nM
IC50 [16]: > 10000 nM

IC50 [17]: > 100000 nM
Structure (SMILES): COc1cc2c(Nc3ncc(CCNC(=O)c4cccc(F)c4)s3)ncnc2cc1OCCCN1CCCC1

IC50 [18]: 190 nM
Structure (SMILES): Fc1ccc(Nc2ncnc3ccc(-c4ccc(CCN5CCOCC5)s4)cc23)cc1Cl

IC50 [19]: > 50000 nM
IC50 [20]: > 50000 nM
Structure (SMILES): C/C(=C/c1cc2c(N)nc(N)nc2o1)c1ccc2ccccc2c1

IC50 [21]: ≥ 5000 nM
Structure (SMILES): CN1CCN(c2ccc3[nH]c(-c4cc(-c5ccc(NC(=O)Nc6cccc(Cl)c6)cc5)[nH]n4)nc3c2)CC1

IC50 [22]: 200 nM
Structure (SMILES): CCOC(=O)c1cn2ncnc(Nc3ccc4c(cnn4Cc4ccccc4)c3)c2c1CC

IC50 [23]: 33000 nM
Structure (SMILES): CCOCOc1cc(OCOCC)c2c(c1Cl)CC(=O)C=CCCC=CC[C@H](c1ccccc1)OC2=O

IC50 [24]: 14 nM
Structure (SMILES): CCc1cc2cccc(C#CCCc3ccccc3)c2cc1CC

inhibition [25]: 7%
inhibition [26]: -1%
IC50 [27]: > 6000 nM
Structure (SMILES): CN(C(=O)C1CCCCC1)c1ccc2c(c1)nc(NC(=O)c1cccs1)n2CCC(N)=O

IC50 [28]: > 10000 nM
Structure (SMILES): Cc1ccc(S(=O)(=O)Nc2ccc3c(c2)CNC(=O)N3c2c(Cl)cccc2Cl)cc1

IC50 [29]: 530 nM
Structure (SMILES): O=C(Nc1ccc2[nH]cc(CCc3ccncc3)c2c1)c1cc(F)cc(N2CCOCC2)c1

IC50 [30]: 100000 nM
Structure (SMILES): CC(C)C[C@@H]1NC(=O)[C@H](CC(C(=O)O)C(=O)O)NC(=O)C[S+]([O-])C[C@@H](C(N)=O)NC(=O)CCCCNC(=O)[C@H](CC(N)=O)NC(=O)C2(CCCCC2)NC(=O)[C@H](Cc2ccc(O)c(N)c2)NC1=O (some centres undefined)

IC50 [31]: > 10000 nM
IC50 [32]: > 10000 nM
Structure (SMILES): CCc1cccc(CC)c1NC(=O)N1Cc2[nH]nc(NC(=O)c3ccc(N4CCN(C)CC4)cc3)c2C1

Structure (SMILES): COCC1COc2cc3ncnc(Nc4cccc(Br)c4)c3cc2O1 (centres undefined)
GI50 [33]: 600 nM and 240 nM

inhibition [34]: 14%
Structure (SMILES): CC(C)(C)c1ccc(Nc2nnc(-c3ccc(C(N)=O)cc3)c3ccccc23)cc1
